According to US8946260B2, “17α-hydroxylase/C17,20-lyase inhibitors” (Novartis AG, priority 2010, dated 2015):
Structures can show the parent of a compound that is named as a salt.

Molecular target: T1, recombinant Human CYP17 enzyme (17-20 lyase) (Homo sapiens, UniProt P05093)
T1 construct: made in house; host or cells: A549 cells, adenoviral expression system; purified cell membrane preparations
T1 sequence (P05093 1-508): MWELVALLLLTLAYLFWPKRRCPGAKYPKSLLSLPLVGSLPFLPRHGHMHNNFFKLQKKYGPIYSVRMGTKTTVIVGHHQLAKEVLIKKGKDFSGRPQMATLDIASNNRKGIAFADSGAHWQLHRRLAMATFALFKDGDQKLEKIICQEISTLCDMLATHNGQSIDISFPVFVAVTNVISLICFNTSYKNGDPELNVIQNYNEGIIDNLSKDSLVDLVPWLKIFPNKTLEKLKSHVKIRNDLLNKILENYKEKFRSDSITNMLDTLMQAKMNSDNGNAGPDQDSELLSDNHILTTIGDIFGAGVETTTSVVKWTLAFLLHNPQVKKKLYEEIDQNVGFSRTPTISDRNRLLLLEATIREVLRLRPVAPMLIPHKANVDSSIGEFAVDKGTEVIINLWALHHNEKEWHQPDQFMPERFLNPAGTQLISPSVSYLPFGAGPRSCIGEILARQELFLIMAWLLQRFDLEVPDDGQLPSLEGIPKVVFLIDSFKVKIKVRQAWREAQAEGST
Experiment: Cytochrome P450, 17-20 lyase (CYP17-lyase) assay, 17-α-hydroxy pregnenolone [21-3H] as substrate
Format: biochemical
Conditions: at 10 μM; read-out: hCYP17 Lyase % Inh
Source text: 1) Cytochrome P450, 17-20 Lyase (CYP17-Lyase) Assay Development Using Recombinant Human CYP17 Enzyme and 17-α-Hydroxy Pregnenolone [21-3H] as the Substrate.
Cytochrome P450, 17-α-Hydroxylase, 17-20 lyase (CYP17) is a multi functional enzyme that plays a key role in the biosynthesis of steroid hormones. It catalyses both conventional hydroxylation and also the carbon-carbon bond cleavage reactions (Peter Lee-Robichaud et al, Biochem. J, (1997) 321, 857-63). In the hydroxylation reaction, it converts progesterone and pregnenolone to the corresponding hydroxylated products 17-α-hydroxy progesterone and 17-α-hydroxy pregnenolone. In the lyase reaction, it catalyzes the conversion of these hydroxylated substrates to Androstenedione and Dehydroepiandrosterone (DHEA) respectively. In the Cyp17 lyase assay described here, the conversion of 17-α-hydroxy pregnenolone to Dehydroepiandrosterone and acetic acid is being monitored.
Assay method was adopted from a published protocol with some modifications to suit our requirements (Dmitry N Grigoryev et al, Analytical Biochemistry, (1999) 267, 319-330). The conversion of 17-α-hydroxy pregnenolone to Dehydroepiandrosterone is accompanied by the release of acetic acid. In the Cyp17 lyase assay, 17-α-hydroxy pregnenolone labeled with tritium (3H) at position 21 is used as the substrate. Chloroform extraction removes the radioactive steroids and acetic acid is taken into aqueous layer. The tritiated acetic acid released in the assay thus extracted is quantified to determine the enzyme activity.
Initial buffer conditions were, 50 mM Phosphate buffer, pH 7.5 was used as the starting buffer for Cyp17 lyase activity based on the data published in US patent publication No. US2004/0198773 A1. […] Human Cyp 17 gene was cloned and expressed in Adenoviral expression system in A549 cell lines. The purified cell membrane preparations were used as the source for Human CYP17 enzyme. Total protein concentration: 8 mg/mL.
For routine screening, the assay was set up with 16 μg of enzyme in 50 μL reaction volume. 17α-hydroxy pregnenolone [21-3H] was added to a final concentration of 0.25 μM. NADPH is used at a final concentration of 4.2 mM. Total reaction volume was made up to 50 μL with 50 mM Phosphate buffer pH 7.5. The reaction mixture was incubated at room temperature for 90 minutes with gentle shaking. The reaction was stopped by the addition of 100 μL of buffer. 500 μL of 5% freshly prepared activated charcoal was added to the solution and mixed well by vortexing. The samples were centrifuged at 17568×g for 5 minutes. (14000 rpm). The supernatant was carefully transferred to fresh tube and 1.3 mL of scintillation fluid was added, mixed by vortexing.
The radioactivity was measured in a 1450 MicroBeta TriLux™ scintillation counter from Wallac-Perkin Elmer®, USA. The measurements were carried out in 2.0 mL Eppendorf™ tubes. Each tube was counted for 1 minute. The amount of tritiated acetic acid released is proportional to the lyase activity. Percent lyase activity in presence of inhibitor was calculated using the formula given below.
[formula] • Sample: Enzyme reaction in presence of inhibitor. • Positive control: Enzyme reaction without inhibitor but containing DMSO at 1% final concentration. • Blank—Contains all reagents except enzyme. • % Inhibition=100%−% Lyase activity
For IC50 determination, the % inhibition was plotted as a function of inhibitor concentration. The data was fitted to sigmoidal equation using Graphpad Prism® software IV to generate IC50 values.

First: Cc1ccncc1N1CCc2ccc(Oc3ncc(F)cn3)cc2C1=O [Example 37A, 7-(5-fluoropyrimidin-2-yloxy)-2-(4-methylpyridin-3-yl)-3,4-dihydroisoquinolin-1(2H)-one]
Second: Cc1ccncc1N1CCc2ccsc2C1=O [Example 5A, 6-(4-Methyl-pyridin-3-yl)-5,6-dihydro-4H-thieno[2,3-c]pyridin-7-one]
The inhibition at 10 µM of the first is lower: 63% for the first, 91% for the second.

Compared with Cc1ccncc1N1CCc2c(cccc2C(F)(F)F)C1=O [Example 22A, 2-(4-Methyl-pyridin-3-yl)-5-trifluoromethyl-3,4-dihydro-2H-isoquinolin-1-one], Cc1ccncc1N1CCc2ccc(F)c(NCC3CC3)c2C1=O [Example 39A, 8-(cyclopropylmethylamino)-7-fluoro-2-(4-methylpyridin-3-yl)-3,4-dihydroisoquinolin-1(2H)-one, acetate salt] is higher in inhibition at 10 µM: 42% for the first, 76% for the second.

For O=C1c2sccc2CCN1c1cccnc1 [Example 6A, 6-Pyridin-3-yl-5,6-dihydro-4H-thieno[2,3-c]pyridin-7-one], the inhibition at 10 µM was 48%.

Same assay, conditions: human CYP17 lyase; substrate 0.25 μM; room temperature, 90 minutes

In the case of O=c1c2c(ccn1-c1cnccc1C(F)(F)F)[nH]c1ccccc12 [Example 63A, 2-(4-(trifluoromethyl)pyridin-3-yl)-2,5-dihydro-1H-pyrido[4,3-b]indol-1-one], the “Lyase IC 50 nM Human” value is reported as “NOT ACTIVE”.

Same assay, conditions: human CYP17 lyase; substrate 0.25 μM; room temperature, 90 minutes; read-out: Lyase IC 50 nM Human

Compared with O=C1c2ccc(C(F)(F)F)cc2CCN1c1cncc(F)c1 [Example 56A, 2-(5-fluoropyridin-3-yl)-6-(trifluoromethyl)-3,4-dihydroisoquinolin-(2H)-one], Cc1ccncc1N1CCc2cc(C(F)(F)F)ccc2C1=O [Example 17A, 2-(4-Methyl-pyridin-3-yl)-6-trifluoromethyl-3,4-dihydro-2H-Isoquinolin-1-one] is 12-fold lower in IC50: 1110 nM for the first, 95 nM for the second. The second is the more potent here.

Going from COc1cc2c(cc1Cl)C(=O)N(c1cnccc1C)CC2 [Example 86A, 7-chloro-6-methoxy-2-(4-methylpyridin-3-yl)-3,4-dihydroisoquinolin-1(2H)-one] to COc1ccc2c(c1)C(=O)N(c1cnccc1C)CC2 [Example 26A, 7-Methoxy-2-(4-methyl-pyridin-3-yl)-3,4-dihydro-2H-isoquinolin-1-one], the IC50 rises from 11 nM to 17 nM (1.5-fold).

First: O=C1c2cc(C(F)(F)F)ccc2CCN1c1cccnc1 [Example 16A, 2-Pyridin-3-yl-7-trifluoromethyl-3,4-dihydro-2H-isoquinolin-1-one]
Second: Cc1ccncc1N1CCc2ccc(C(F)(F)F)cc2C1=O [Example 4A, 2-(4-Methyl-pyridin-3-yl)-7-trifluoromethyl-3,4-dihydro-2H-isoquinolin-1-one]
The IC50 of the first is 32-fold higher: 175 nM for the first, 5.5 nM for the second.

Cn1cncc1N1CCc2ccc(C(F)(F)F)cc2C1=O [Example 54A, 2-(1-methyl-1H-imidazol-5-yl)-7-(trifluoromethyl)-3,4-dihydroisoquinolin-1(2H)-one] and O=C1c2cc(C(F)(F)F)ccc2CCN1c1cnccc1C1CC1 [Example 73A, 2-(4-cyclopropylpyridin-3-yl)-7-(trifluoromethyl)-3,4-dihydroisoquinolin-1(2H)-one] are within 1.5-fold of each other in IC50: 19 nM for the first, 14 nM for the second.

Compared with COc1cccc2c1CCN(c1cnccc1C)C2=O [Example 13A, 5-Methoxy-2-(4-methyl-pyridin-3-yl)-3,4-dihydro-2H-isoquinolin-1-one], COc1ccc2c(c1)CCN(c1cnccc1C)C2=O [Example 11A, 6-Methoxy-2-(4-methyl-pyridin-3-yl)-3,4-dihydro-2H-isoquinolin-1-one] is 4.3-fold lower in IC50: 917 nM for the first, 214 nM for the second. The second is the more potent here.

First: Cc1ccncc1N1CCc2ccc(C#N)cc2C1=O [Example 32A, 2-(4-methylpyridin-3-yl)-1-oxo-1,2,3,4-tetrahydroisoquinoline-7-carbonitrile]
Second: Cc1ccncc1N1CCc2ccc(Cl)cc2C1=O [Example 2A, 7-Chloro-2-(4-methyl-pyridin-3-yl)-3,4-dihydro-2H-isoquinolin-1-one]
The IC50 of the first is 8.1-fold higher: 301 nM for the first, 37 nM for the second. The second is the more potent here.

First: Cc1ccncc1N1CC(C)(C)c2ccc(C(F)(F)F)cc2C1=O [Example 20A, 4,4-Dimethyl-2-(4-methyl-pyridin-3-yl)-7-trifluoromethyl-3,4-dihydro-2H-isoquinolin-1-one]
Second: O=C1c2cc(C(F)(F)F)ccc2CCN1c1cnccc1C(F)(F)F [Example 21A, 7-Trifluoromethyl-2-(4-trifluoromethyl-pyridin-3-yl)-3,4-dihydro-2H-isoquinolin-1-one]
The IC50 of the first is 6.6-fold higher: 369 nM for the first, 56 nM for the second. The second is the more potent here.

Going from O=c1c2cc(C(F)(F)F)ccc2ccn1-c1cncc(F)c1 [Example 68A, 2-(5-fluoropyridin-3-yl)-7-(trifluoromethyl)isoquinolin-1(2H)-one] to O=c1c2cc(C(F)(F)F)ccc2ccn1-c1cccnc1 [Example 36A, 2-(pyridin-3-yl)-7-(trifluoromethyl)isoquinolin-1(2H)-one], the IC50 falls from 282 nM to 54 nM (5.2-fold). The second is the more potent here.

O=C1c2cc(Cl)c(Cl)cc2CCN1c1cnccc1C(F)(F)F [Example 55A, 6,7-dichloro-2-(4-(trifluoromethyl)pyridin-3-yl)-3,4-dihydroisoquinolin-1(2H)-one] and O=C1c2cc(C(F)(F)F)c(Cl)cc2CCN1c1cnccc1C(F)(F)F [Example 85A, 6-chloro-7-(trifluoromethyl)-2-(4-(trifluoromethyl)pyridin-3-yl)-3,4-dihydroisoquinolin-1(2H)-one] are within 1.5-fold of each other in IC50: 125 nM for the first, 108 nM for the second.

Going from Cc1ccncc1N1CCc2sc3ccccc3c2C1=O [Example 9A, 2-(4-Methyl-pyridin-3-yl)-3,4-dihydro-2H-benzo[4,5]thieno[3,2-c]pyridin-1-one] to Cc1ccncc1N1CCc2sc3ccc(F)cc3c2C1=O [Example 50A, 8-Fluoro-2-(4-methylpyridin-3-yl)-3,4-dihydrobenzo[4,5]thieno[3,2-c]pyridin-1(2H)-one], the IC50 rises from 1.5 nM to 6 nM (4-fold). The first is the more potent here.

Going from CC1Cc2ccc(C(F)(F)F)cc2C(=O)N1c1cccnc1 (centres unmarked) [Example 43A, 3-Methyl-2-pyridin-3-yl-7-trifluoromethyl-3,4-dihydro-2H-isoquinolin-1-one] to O=C1c2cc(Cl)ccc2CCN1c1cccnc1 [Example 1A, 7-Chloro-2-pyridin-3-yl-3,4-dihydro-2H-isoquinolin-1-one], the IC50 rises from 15 nM to 60 nM (4-fold).

Going from Cc1ccncc1N1CCc2c([nH]c3ccccc23)C1=O [Example 61A, 2-(4-methylpyridin-3-yl)-2,3,4,9-tetrahydro-1H-pyrido[3,4-b]indol-1-one] to Cc1ccncc1N1CCc2c(sc3ccc(F)cc23)C1=O [Example 45A, 6-Fluoro-2-(4-methyl-pyridin-3-yl)-3,4-dihydro-2H-benzo[4,5]thieno[2,3-c]pyridin-1-one], the IC50 falls from 1510 nM to 211 nM (7.2-fold). The second is the more potent here.

First: O=C1c2cc(Cl)ccc2CCN1c1cnccc1C1CC1 [Example 74A, 7-chloro-2-(4-cyclopropylpyridin-3-yl)-3,4-dihydroisoquinolin-1 (2H)-one]
Second: O=C1c2c(ccc(C(F)(F)F)c2F)CCN1c1cnccc1C(F)(F)F [Example 77A, 8-fluoro-7-(trifluoromethyl)-2-(4-(trifluoromethyl)pyridin-3-yl)-3,4-dihydroisoquinolin-1(2H)-one]
The IC50 of the first is 7.3-fold lower: 23 nM for the first, 167 nM for the second. The first is the more potent here.
